These results are taken from US20250163057A1, “DCN-1 MODULATING COMPOUNDS AND METHODS OF USE THEREOF” (Cellarity, Inc., priority 2023, published 2025).

Like-named read-outs stand apart in the source and are kept apart here. A value given as a limit tells only on which side of the number the result lay.

Experiment [1] relates to Cullin-3 (CUL3) neddylation. The experiment is described as follows: AlphaLISA assay for Cullin-3 (CUL3) neddylation in TF 1 cells. It counts as cell-based. The note with it: Homo sapiens, TF-1, 3 h, 3 hours treatment. As to the method:
An AiphaLISA assay was performed to evaluate the ability of the compounds to suppress neddylation, which is downstream from DCN-1 and DCN-2. A stronger inhibition of DCN-1 and DCN-2 is expected to result in a suppression of neddylation as shown by a lower AlphaLISA signal. The AlphaLISA assay for detecting Cullin-3 (CUL3) neddylation was performed according to manufacturer instructions (Revvity, Hopkinton, MA). Briefly, TF 1 cells (ATCC) were plated in Iscove's Modified Dulbecco's Medium (IMIDM) without supplements in 384-well plates. These cells were treated with […] for 3 hours before lysing them with AlphaLISA lysis buffer, 5× (Revvity). To detect the level of CUL3 neddylation, biotinylated anti-NEDD8 antibody, was added followed by AlphaLISA Acceptor beads conjugated with anti-CUL3 antibody. After overnight incubation, Streptavidin-coated Alpha Donor beads were added and incubated for 1 hour. The AlphaLISA signal was then read on a VICTOR Nivo Multimode Microplate Reader (Revvity, Hopkinton, MA). The positive control was 1 μM DI-1548, which is reported to reduce CUL3 neddylation, also referred to as C-1 in Example 41 (Zhou et al. Nature Comm. 2021). The neddylation signal was normalized such that the percent inhibition is 0% for vehicle control and 100% for positive control. The dose-response curves were fitted with the Hill equation to obtain IC50 values (Graphpad Prism).
(In general: Alpha assays give light when donor and acceptor beads are brought close together.)

Experiment [2] addresses DCN1 (DCUND1) protein PONY domain (Homo sapiens (Human), UniProt Q96GG9). The experiment can be described thus: TR-FRET assay, DCN1 binding with FAM-labeled probe. In short, it runs like this: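 Tb-DCN1 PONY domain (E. coli, biotin/streptavidin-Tb); FAM-labelled non-covalent inhibitor probe; TritonX buffer, 200 mM NaCl; 5 nM DCN1 + 20 nM probe or 0.31 nM DCN1 + 900 nM total probe; 0.1% DMSO; TR-FRET read 1, 5, 24 hrs.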
(Time-resolved FRET reads energy transfer from a long-lived donor to a nearby acceptor.)

The mark [3] stands for this setting: 24 hr after treatment with compound, read-out: TR FRET IC50 24 hr.
The mark [4] stands for this setting: TR FRET IC50 1 hr (nM), 1 hr after treatment with compound.
Where [5] appears, read: read-out: TR FRET IC50 1 hr, 1 hr after treatment with compound.

Chain of DCN1 (DCUND1) protein PONY domain (Q96GG9 60-248): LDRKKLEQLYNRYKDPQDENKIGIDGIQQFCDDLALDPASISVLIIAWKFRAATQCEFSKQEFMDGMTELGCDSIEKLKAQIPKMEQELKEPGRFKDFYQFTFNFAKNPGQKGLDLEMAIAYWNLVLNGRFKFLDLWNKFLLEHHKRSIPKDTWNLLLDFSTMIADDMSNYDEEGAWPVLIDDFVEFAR

Usually IC50 stands for the concentration that gives 50% inhibition. For the compound `C#C[C@@H]1CCCN1C(=O)c1nn(C2CCOCC2)c2c1[C@H](C1CC1)[C@H](NC(=O)c1cccc(C(F)(F)F)c1)C(=O)N2CC` [Compound I-594], the IC50 in experiment [1] is greater than 1000 nM; in experiment [2] (setting [3]), 1000 to 3000 nM; in experiment [2] (setting [4]), 1000 to 3000 nM.
Consider `CCN1C(=O)[C@@H](NC(=O)c2cccc(C(F)(F)F)c2)[C@@H](c2ccc(F)cc2)c2c(CN(C#N)CCCN3CC4(COC4)C3)nn(-c3ccccc3)c21` [Compound I-577], for which the IC50 in experiment [1] was greater than 1000 nM; in experiment [2] (setting [3]), 200 to 1000 nM; in experiment [2] (setting [4]), 200 to 1000 nM.
Take `CCN1C(=O)[C@@H](NC(=O)c2cccc(C(F)(F)F)c2)[C@@H](c2ccc(F)cc2)c2c(CN(C#N)CCCN3CCOCC3)nn(-c3ccccc3)c21` [Compound I-496]: the IC50 in experiment [1] was no more than 100 nM; in experiment [2] (setting [3]) it was no more than 200 nM; in experiment [2] (setting [5]), no more than 200 nM.
`CCN1C(=O)[C@@H](NC(=O)c2cccc(C(F)(F)F)c2)[C@@H](c2ccc(F)cc2)c2c(C(=O)N(CC#N)CCN(C)C)nn(-c3ccccc3)c21` (racemic) [Compound I-448]: the half-maximal inhibitory concentration (IC50) was greater than 1000 nM in experiment [1], no more than 200 nM in experiment [2] (setting [3]) and no more than 200 nM in experiment [2] (setting [5]).
For the compound `CCCn1nc(C(=O)N(CC#N)C2CC2)c2c1N(CC)C(=O)[C@@H](NC(=O)c1cccc(C(F)(F)F)c1)[C@H]2C1CC1` [Compound I-427], the IC50 in experiment [1] was 100 to 1000 nM; in experiment [2] (setting [3]) it was 200 to 1000 nM; in experiment [2] (setting [4]) it was 1000 to 3000 nM.
With `CCN1C(=O)[C@H](NC(=O)c2cccc(C(F)(F)F)c2)[C@H](c2ccc(F)cc2)c2c(C(=O)N3CCNC[C@H]3C#N)nn(-c3ccccc3)c21` [Compound I-453], the IC50 is greater than 1000 nM in experiment [1], 200 to 1000 nM in experiment [2] (setting [3]) and 1000 to 3000 nM in experiment [2] (setting [4]).
Taken in the same sequence, the figures for `CCN1C(=O)[C@@H](NC(=O)c2ccc3scnc3c2)[C@@H](C2CC2)c2c(C(=O)N3[C@H](C#N)C[C@H]4C[C@H]43)nn(C3CCOCC3)c21` [Compound I-483] were greater than 1000 nM, 200 to 1000 nM and 1000 to 3000 nM.
In the case of `CCN1C(=O)[C@@H](NC(=O)C23CC(C(F)F)(C2)C3)[C@@H](C2CC2)c2c(C(=O)N3[C@H](C#N)C[C@H]4C[C@H]43)nn(C3CCOCC3)c21` [Compound I-662], the figures for the half-maximal inhibitory concentration (IC50) in experiment [1], in experiment [2] (setting [3]) and in experiment [2] (setting [4]) were greater than 1000 nM, 1000 to 3000 nM and 1000 to 3000 nM, respectively.
Turning to `CCCn1nc(C(=O)N2CCC[C@H]2C#N)c2c1N(CC)C(=O)[C@H](NC(=O)c1cccc(C(F)(F)F)c1)[C@@H]2C1CC1` [Compound I-571], the figures for the IC50 in experiment [1], in experiment [2] (setting [3]) and in experiment [2] (setting [4]) were greater than 1000 nM, 1000 to 3000 nM and 1000 to 3000 nM, respectively.
As to `CCN1C(=O)[C@@H](NC(=O)c2cccc(C(F)(F)F)c2)[C@@H](C2CC2)c2c(C(=O)N3[C@H](C#N)C[C@H]4C[C@H]43)nn(C(C)(C)C)c21` (mixture of isomers) [Compound I-517], the values for the IC50 in experiment [1], in experiment [2] (setting [3]) and in experiment [2] (setting [4]) were 100 to 1000 nM, 200 to 1000 nM and 1000 to 3000 nM, respectively.
`CCN1C(=O)[C@@H](NC(=O)c2cccc(C(F)(F)F)c2)[C@@H](c2ccc(F)cc2)c2c(CN(C#N)CCO)nn(-c3ccccc3)c21` (racemic) [Compound I-244, ˜{N}—[˜{rac}-(4˜{S},5˜{S})-3-[[cyano(2-hydroxyethyl)amino]methyl]-7-ethyl-4-(4-fluorophenyl)-6-oxo-1-phenyl-4,5-dihydropyrazolo[3,4-b]pyridine-5-yl]-3-(trifluoromethyl)benzamide]: the figures for the IC50 in experiment [1], in experiment [2] (setting [3]) and in experiment [2] (setting [4]) were 100 to 1000 nM, 200 to 1000 nM and 1000 to 3000 nM, respectively.
Take `CCN1C(=O)[C@@H](NC(=O)c2cccc(C(F)(F)F)c2)[C@@H](c2ccc(F)cc2)c2c(CN(C#N)CCCN3CCC4(CC3)COC4)nn(-c3ccccc3)c21` [Compound I-579]: the half-maximal inhibitory concentration (IC50) in experiment [1] was no more than 100 nM; in experiment [2] (setting [3]) it was no more than 200 nM; in experiment [2] (setting [5]) it was no more than 200 nM.
In the case of `CCCn1nc(C(=O)N(C)C(C)C#N)c2c1N(CC)C(=O)[C@@H](NC(=O)c1cccc(C(F)(F)F)c1)[C@H]2C1CC1` (stereo partly drawn) [Compound I-569], the figures for the IC50 in experiment [1], in experiment [2] (setting [3]) and in experiment [2] (setting [4]) were no more than 100 nM, no more than 200 nM and 200 to 1000 nM, respectively.
Consider `CCN1C(=O)[C@@H](NC(=O)c2cccc(C(F)(F)F)c2)[C@@H](C2CC2)c2c(C(=O)N3CCS(=O)(=O)C[C@@H]3C#N)nn(-c3ccccc3)c21` [Compound I-438, N-((4S,5S)-3-((S)-3-cyano-1,1-dioxidothiomorpholine-4-carbonyl)-4-cyclopropyl-7-ethyl-6-oxo-1-phenyl-4,5,6,7-tetrahydro-1H-pyrazolo[3,4-b]pyridin-5-yl)-3-(trifluoromethyl)benzamide], for which the results for the IC50 in experiment [1], in experiment [2] (setting [3]) and in experiment [2] (setting [5]) were no more than 100 nM, no more than 200 nM and no more than 200 nM, respectively.
Turning to `CCN1C(=O)[C@H](NC(=O)c2cccc(C(F)(F)F)c2)[C@H](c2ccc(F)cc2)c2c(C(=O)N[C@@H](C)C#N)nn(-c3ccccc3)c21` [Compound I-255, (4R,5R)—N—((S)-1-cyanoethyl)-7-ethyl-4-(4-fluorophenyl)-6-oxo-1-phenyl-5-(3-(trifluoromethyl)benzamido)-4,5,6,7-tetrahydro-1H-pyrazolo[3,4-b]pyridine-3-carboxamide], the IC50 in experiment [1] was greater than 1000 nM; in experiment [2] (setting [3]), 1000 to 3000 nM; in experiment [2] (setting [4]), 1000 to 3000 nM.
Consider `CCN1C(=O)[C@@H](NC(=O)c2nccc(C(F)(F)F)n2)[C@H](c2ccc(F)cc2)c2c(CNC(=O)/C=C/C(=O)N3CCCC3)nn(-c3ccccc3)c21` [Compound I-495], for which the IC50 in experiment [1] is greater than 1000 nM; in experiment [2] (setting [3]) it was 200 to 1000 nM; in experiment [2] (setting [4]), 200 to 1000 nM.
For `CCN1C(=O)[C@@H](NC(=O)c2cccc(C(F)(F)F)c2)[C@@H](c2ccc(F)cc2)c2c(CNC/C=C/C(=O)N(C)C)nn(-c3ccccc3)c21` [Compound I-490], the IC50 in experiment [1] is 100 to 1000 nM; in experiment [2] (setting [3]) it was no more than 200 nM; in experiment [2] (setting [5]), no more than 200 nM.
For `CCN1C(=O)[C@@H](NC(=O)c2cccc(C(F)(F)F)c2)[C@@H](c2ccc(F)cc2)c2c(C(=O)N(C)[C@H](C#N)CCN(C)C)nn(-c3ccccc3)c21` (single isomer, unassigned) [Compound I-303, (4S,5S)—N-[(1S*)-1-cyano-3-(dimethylamino)propyl]-7-ethyl-4-(4-fluorophenyl)-N-methyl-6-oxo-1-phenyl-5-[3-(trifluoromethyl)benzamido]-4H,5H-pyrazolo[3,4-b]pyridine-3-carboxamide], the 50% inhibitory concentration (IC50) in experiment [1] is no more than 100 nM.
`CCN1C(=O)[C@@H](NC(=O)c2cccc(F)c2)[C@@H](C2CC2)c2c(C(=O)N3[C@H](C#N)C[C@H]4C[C@H]43)nn(C3CCOCC3)c21` [Compound I-690]: the IC50 in experiment [2] (setting [3]) was no more than 200 nM; in experiment [2] (setting [4]) it was 200 to 1000 nM.
With `CCN1C(=O)[C@@H](NC(=O)c2cccc(C(F)(F)F)c2)[C@@H](c2ccc(F)cc2)c2c(CC/C=C/C(=O)OC)nn(-c3ccccc3)c21` (racemic) [Compound I-128, rac-methyl (E)-5-((4R,5R)-7-ethyl-4-(4-fluorophenyl)-6-oxo-1-phenyl-5-(3-(trifluoromethyl)benzamido)-4,5,6,7-tetrahydro-1H-pyrazolo[3,4-b]pyridin-3-yl)pent-2-enoate], the values for the IC50 in experiment [2] (setting [3]) and in experiment [2] (setting [4]) were 200 to 1000 nM and 1000 to 3000 nM, respectively.
With `CCN1C(=O)[C@@H](NC(=O)c2ccccc2)[C@@H](C2CC2)c2c(C(=O)N3[C@H](C#N)C[C@H]4C[C@H]43)nn(C3CCOCC3)c21` [Compound I-553], the IC50 in experiment [2] (setting [3]) was no more than 200 nM; in experiment [2] (setting [4]), 200 to 1000 nM.
Consider `CCN1C(=O)[C@@H](NC(=O)c2cccc(C(F)(F)F)c2)[C@@H](c2ccc(F)cc2)c2c(CNC(=O)C3=C(C(=O)OC)CCC3)nn(-c3ccccc3)c21` [Compound I-135], for which the IC50 in experiment [2] (setting [3]) and in experiment [2] (setting [4]) was 200 to 1000 nM each time.
With `CCN1C(=O)[C@@H](NC(=O)c2cccc(C(F)(F)F)c2)[C@@H](c2ccc(F)cc2)c2c(C(=O)N3CC[C@H](C#N)C3)nn(-c3ccccc3)c21` (mixture of isomers) [Compound I-137], the IC50 in experiment [2] (setting [3]) and in experiment [2] (setting [4]) was 200 to 1000 nM each time.
Turning to `CCN1C(=O)[C@@H](NC(=O)c2cccc(C(F)(F)F)c2)[C@@H](c2ccc(F)cc2)c2c(CC/C=C/C(N)=O)nn(-c3ccccc3)c21` [Compound I-124], the IC50 in experiment [2] (setting [3]) and in experiment [2] (setting [4]) was 200 to 1000 nM each time.
Take `CCN1C(=O)[C@@H](NC(=O)c2cccc(C(F)(F)F)c2)[C@@H](c2ccc(F)cc2)c2c(CNC(=O)/C=C/C(=O)O)nn(-c3ccccc3)c21` (racemic) [Compound I-59, rac-I-4-((((4R,5R)-7-ethyl-4-(4-fluorophenyl)-6-oxo-1-phenyl-5-(3-(trifluoromethyl)benzamido)-4,5,6,7-tetrahydro-1H-pyrazolo[3,4-b]pyridine-3-yl)methyl)amino)-4-oxobut-2-enoic acid]: the IC50 in experiment [2] (setting [3]) and in experiment [2] (setting [4]) was 1000 to 3000 nM throughout.
